Where two headings read alike, the source gives them in different places.
Experiments:
[1] = Plasma and brain concentration in rats (after PTZ-kindling); assay type: in vivo; conditions: for concentration at 45 min / Kp at 0.75 h: ip; for Kp at 0.75 h: 45 min
Experimental: One day after kindling procedure, selected rats (groups with n ≥ 5) were again pre-treated with the compounds of interest and sacrificed at the assumed peak times of brain concentration by CO2 inhalation. Blood was collected intracardially by heart centesis via glass pipettes supplemented with heparin-Na (ratiopharm, Ulm, Germany; 10μl of 5.000 I.U./ml) and separated by centrifuging (1500xg for 10 min) at 6–8°C. The plasma was stored at -20°C in plastic tubes. After blood sample collection, rats were decapitated and brains were quickly dissected. After removing the adherent blood by tissue paper and cutting off the cerebellum, the samples were fresh frozen using liquid nitrogen. Brain tissue was stored at -80°C and delivered to the different laboratories on dry ice. For mice (groups with n = 6), a similar procedure was used for the preparation of plasma and brain samples. In experiments in which AFC was co-administered with carbamazepine or ethosuximide, drug concentrations in plasma and brain were estimated to detect potential pharmacokinetic interactions.
Samples from experiments with AFC were analysed at the Lead Discovery Center (Dortmund, Germany). Briefly, AFC, carbamazepine and ethosuximide were extracted from plasma and homogenized brain by protein precipitation using acetonitrile. Resulting filtrates were analysed by liquid chromatography tandem-mass spectrometry (LC-MS/MS) using a Prominence UFLC system (Shimadzu, Duisburg, Germany) coupled to a QTrap 5500 instrument (ABSciex, Darmstadt, Germany). The compounds were separated on a Zorbax Eclipse Plus C18 column (Agilent Technologies, Santa Clara, CA, USA) with an acetonitrile/water gradient containing 0.1% formic acid as solvent. Chromatographic conditions and mass spectrometer parameters were optimized for each analyte. Plasma and brain concentrations of the compounds were calculated by means of a standard curve.
Plasma and brain samples from experiments with JNJ-47965567 were quantified at the Neuroscience Therapeutic Area, Janssen Research & Development (San Diego, CA, USA) using an API 4000 MS/MS system (Applied Biosystems, Concord, ON, Canada) interfaced with an Agilent 1100 Series HPLC (Agilent Technologies). To measure the percentage of P2X7R brain occupancy of JNJ-47965567, ex vivo receptor binding autography was performed as recently described. Briefly, 20 μm-thick hippocampal slices were prepared and P2X7R radioligand binding was determined at room temperature with 10 nM [^3H] JNJ-54232334 (Janssen) in 50 mM Tris-HCl incubation buffer containing 0.1% bovine serum albumin. The non-specific binding was measured using adjacent sections incubated in the additional presence of 100 μM A-740003 (Tocris Bioscience, Bristol UK). Sections were incubated for 1 min, washed in ice-cold incubation buffer (4 times, 5 min each), followed by two dips in deionized water and rapidly dry under a stream of cold air before acquisition. Quantitative analysis was performed using the Tracer ß-Imager with M3 Vision software (Biospace Lab, Paris, France). Ex vivo receptor labelling was expressed as the percentage of receptor labelling in corresponding brain areas of vehicle-treated control animals.

[2] = tested on: PTZ-induced seizures in fully PTZ-kindled rats; assay: PTZ-induced seizures in fully kindled rats; assay type: in vivo; conditions: for effect on mean seizure stage in fully kindled rats: TIIAS 30 mg/kg i.p., BBG 50 mg/kg i.p., AFC 25 mg/kg i.p., JNJ 30 mg/kg s.c., acute
Text: Results were expressed as mean seizure stages of a tested group in which the seizure behaviour after vehicle treatment (vehicle seizure stage) and after compound treatment (compound seizure stage), examined 3-4 days later, was matched. For comparison, the effectiveness of two antiepileptic drugs (carbamazepine and valproate) was also investigated. […] Chemicals, Toronto, Canada) was slowly added. The pH was adjusted with 1N NaOH (similar amount of NaOH as HCl), all with continuous stirring. […] The drug solutions or suspensions were prepared immediately before use; all doses refer to the salts. Animals in the control group received equivalent volumes of the vehicle (in mice always 10 ml/kg, in rats 1 ml/kg [JNJ], 3 ml/kg [AFC] or 4 ml/kg [BBG, TIIAS], depending on the solubility of the different compounds). Doses and peak time effects were selected on the basis of effective doses from corresponding in vivo studies in the literature: BBG (e.g.), tanshinone IIA (e.g.) and from manufacturer's experimental data: AFC, JNJ (see, [80]). Data were analysed using SigmaPlot (vers. 12.0, Systat Software, Erkrath, Germany) and SPSS (IBM SPSS Statistics 20, […], Germany), respectively. Results are expressed as mean ± SEM. […] In the MES-T, the current intensity inducing tonic hindlimb extensions in 50% of the mice (CC50 values with confidence limits for 95% probability) and the statistical significance was calculated using Probit analysis (SPSS). […] In the PTZ-T, the number of animals in the group with clonic seizures and the latency time were analysed using Fisher's exact probability test and the Mann-Whitney rank sum test, respectively. For multiple comparisons of the latency time a one-way ANOVA with the Holm-Sidak post hoc test was used. The influence of AFC on the plasma and brain concentrations of the antiepileptic drugs was statistical compared using the same procedure. In the PTZ-kindling model, the mean seizure stage within a group was calculated in relation to the number of PTZ-injections. Statistical comparison between vehicle- and compound-treated groups in this model was performed with two-way repeated measures ANOVA, followed by the Holm-Sidak post hoc test. The mean number of PTZ-injections needed to produce the first generalized seizure (≥ stage 3 convulsions) in the vehicle- versus compound-treated groups was statistically compared using a Mann-Whitney rank sum test. In fully kindled rats, the calculated mean seizure stage within a group after vehicle- and compound-treatment were compared using a paired t-test. P < 0.05 was the accepted minimum level of significance.

SMILES	mean brain concentration ([1]; 30 mg/kg i.p., 45 min before, n = 5) [nM]	concentration at 45 min ([1]; rat, brain, 30 mg/kg i.p., after 45 min, read-out: rat brain concentration) [nM]	Kp at 0.75 h ([1]; rat, brain, 30 mg/kg, 30 mg/kg i.p., read-out: brain to plasma ratio)	concentration at 45 min ([1]; rat, plasma, 30 mg/kg i.p., 45 min before, n = 5, read-out: mean blood plasma concentration) [nM]	effect on mean seizure stage in fully kindled rats [2]	mean brain concentration ([1]; 50 mg/kg i.p., 45 min before, n = 7) [nM]	concentration at 45 min ([1]; rat, brain, 50 mg/kg i.p., 45 min after injection, read-out: rat brain concentration) [nM]	Kp at 0.75 h ([1]; rat, brain, 50 mg/kg, 50 mg/kg i.p., read-out: brain to plasma ratio)	concentration at 45 min ([1]; rat, plasma, 50 mg/kg i.p., 45 min before, n = 7, read-out: mean blood plasma concentration) [nM]	mean brain concentration ([1]; 15 mg/kg s.c., 30 min before, n = 5, listed as JNJ, 15 mg/kg) [nM]	concentration at 30 min ([1]; rat, brain, sc, 15 mg/kg s.c., 30 min before, n = 5, read-out: mean brain concentration) [nM]	Kp at 0.5 h ([1]; rat, brain, sc, 15 mg/kg, 15 mg/kg s.c., 30 min, read-out: brain to plasma ratio)	concentration at 30 min ([1]; rat, plasma, sc, 15 mg/kg s.c., 30 min before, n = 5, read-out: mean blood plasma concentration) [nM]	mean seizure stage, post-drug ([2]; fully kindled rats, 15 mg/kg s.c., pre-drug (vehicle) value 4.4, significant)
Cc1c(S(=O)(=O)[O-])oc2c1C(=O)C(=O)c1c-2ccc2c1CCCC2(C)C.[Na+] [Tanshinone TIIAS, tanshinone IIS sulfonic sodium]	500 ± 100	500	0.02	31100 ± 5900	tendency to reduce the mean seizure stage	–	–	–	–	–	–	–	–	–
CCOc1ccc(Nc2ccc(/C(=C3C=C/C(=[N+](/CC)Cc4cccc(S(=O)(=O)[O-])c4)C=C/3C)c3ccc(N(CC)Cc4cccc(S(=O)(=O)O)c4)cc3C)cc2)cc1 [Brilliant Blue G]	–	–	–	–	tendency to reduce the mean seizure stage	20 ± 2	20	0.01	1600 ± 300	–	–	–	–	–
O=C(NCC1(N2CCN(c3ccccc3)CC2)CCOCC1)c1cccnc1Sc1ccccc1 [JNJ-47965567, N-[[4-(4-phenyl-piperazin-1-yl)tetrahydro-2H-pyran-4-yl]-methyl]-2-(phenyl-thio) nicotinamide]	–	–	–	–	tendency to reduce the mean seizure stage	–	–	–	–	5000 ± 1100	5000	1.2	4000 ± 1000	2.9

From paper PMC4900628, “Critical Evaluation of P2X7 Receptor Antagonists in Selected Seizure Models” (PLoS ONE, 2016)
